Five compounds from PMC11887051, “Discovery of ONO-2920632 (VU6011887): A Highly Selective and CNS Penetrant TREK-2 (TWIK-Related K+ Channel 2) Preferring Activator In Vivo Tool Compound” (ACS Chemical Neuroscience, 2025) can be followed below.

One may read the Kp as tissue or fluid exposure divided by exposure in the circulation. What is called EC50 is the concentration giving half of the maximal effect. A word on the Emax: it is the greatest response seen or fitted, relative to the assay's reference.

SMILES strings stand for the structures.

A short description of data set [1]: rat plasma:brain level study (Kp, Kp,uu). In kind it is in vivo. To be noted: male, Sprague-Dawley, brain and plasma; for Kp at 2 h / Kp uu at 2 h: oral rat plasma:brain level study, 2 h after 3 mg/kg PO. How it is done:
In vivo DMPK experimental:
Determination of brain to plasma ratio:
All animal study procedures were approved by the Institutional Animal Care and Use Committee and were conducted in accordance with the National Institutes of Health regulations of animal care covered in Principles of Laboratory Animal Care (National Institutes of Health). All rats were fasted overnight prior to testing. […]
At 15 min post dosing, blood sample was collected into chilled, K2EDTA anticoagulant-fortified tube and immediately placed on wet ice. The blood sample was then centrifuged (1700 rcf, 5 minutes, 4 °C) to obtain plasma sample. At the same post-administration time point, whole brain sample was obtained by rapid dissection, rinsed with PBS, and immediately frozen in individual tissue collection box (dry ice). All brain and plasma samples were stored at -80 °C until […]
Sample Analysis: Concentrations in plasma and brain homogenates were quantified by liquid chromatography tandem mass spectrometry (LC-MS/MS). Whole brains were homogenized in 3 mL of 70:30 IPA:water in a mini bead beater for 3 min, and centrifuged at 3,500 g for 5 min. 5 uL of the supernatant was diluted in 15 uL of blank plasma for quantification of the analytes. Plasma samples were centrifuged at 3,500 g for 5 min. A standard curve was generated by diluting the analytes DMSO stocks with blank plasma to obtain a final concentration of 10,000 ng/ml followed by a serial dilution down to 0.5 ng/ml. Quality controls were generated by a serial dilution of the 5,000 ng/ml standard curve solution in blank plasma to obtain 3 concentrations of 500, 50, and 5 ng/ml. 20 uL of brain diluted in plasma, plasma, blank plasma, standard curve and QC samples were loaded in a V-bottom 96-well plate. 120 uL of acetonitrile containing 0.05 uM carbamazepine (internal standard) was added to each well and the plate was centrifuged at 3,500 g for 5 min. 60 uL of the supernatant of each well (protein free) was transferred to a new 96-well plate containing 60 uL of water. The plates were sealed for analysis by LC-MS/MS.
Plasma and brain tissue samples originating from in vivo studies were analyzed by electrospray ionization using an AB Sciex Q-TRAP 5500 (Foster City, CA) that was coupled to a Shimadzu LC-20AD pump (Columbia, MD) and a Leap Technologies CTC PAL auto-sampler (Carrboro, NC). Analytes were separated by gradient elution using a C18 column (3 x 50 mm, 3 mm; Fortis Technologies Ltd, Cheshire, UK) that was thermostated at 40 °C. HPLC mobile phase A was 0.1% formic acid in water (pH unadjusted); mobile phase B was 0.1% formic acid in acetonitrile (pH […]
min, with an isocratic hold for 0.5 min, before transitioning to 10% B over 0.05 min. The column was re-equilibrated (1 min) before the next sample injection. The total run time was 2.55 min, and the HPLC flow rate was 0.5 ml/min. The source temperature was set at 500 °C, and mass spectral analyses were performed using a Turbo-Ion spray source in positive ionization mode (5.0-kV spray voltage) and using multiple-reaction monitoring of transitions specific for the analytes. All data were analyzed using AB Sciex Analyst 1.5.1 software.
Brain plasma concentration ratio (Kp) was calculated by dividing brain concentration by plasma concentration for each animal. Unbound brain to unbound plasma concentration ratio (Kp,uu) is calculated using the following formula: Kp,uu = (Brain ng/g x brain fu)/(plasma ng/ml x plasma fu).
For determination of the plasma concentration-time profile, compounds were formulated in methyl cellulose and administered as a 3 mg/kg PO dose to male C57BL/6 mouse or SD rat (n = 2). For the same determination, compounds were formulated in HP-β-CD and administered as a 0.1 mg/kg IV dose to male beagle dog (n = 2).
Plasma samples originating from in vivo studies were analyzed by electrospray ionization using a Q-TRAP 5500 (AB Sciex) that was coupled to a Prominence UFLC XR (Shimadzu Corporation). […]

A further data set addresses T1, TREK-1 (Homo sapiens, UniProt O95069).
T1 sequence (O95069 1-426): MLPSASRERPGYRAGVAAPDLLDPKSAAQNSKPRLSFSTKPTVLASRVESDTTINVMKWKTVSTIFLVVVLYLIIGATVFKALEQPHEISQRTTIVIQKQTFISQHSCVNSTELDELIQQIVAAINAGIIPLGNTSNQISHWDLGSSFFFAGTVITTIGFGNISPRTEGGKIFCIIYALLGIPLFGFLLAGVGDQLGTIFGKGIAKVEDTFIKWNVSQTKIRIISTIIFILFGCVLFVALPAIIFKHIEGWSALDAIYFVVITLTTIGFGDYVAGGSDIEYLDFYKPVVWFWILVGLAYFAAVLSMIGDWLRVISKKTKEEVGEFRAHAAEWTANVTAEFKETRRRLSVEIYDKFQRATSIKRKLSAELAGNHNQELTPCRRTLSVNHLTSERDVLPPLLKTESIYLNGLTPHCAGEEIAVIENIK
Briefly: TREK-1 thallium flux assay (hTREK-1/CHO). As to conditions: for Emax: % activation relative to 10 µM BL-1249. The class given is cell-based. On the set-up: host or cells: CHO. The procedure: Procedures for Biological Experiments
TREK-1 and TREK-2 thallium flux assay protocol
CHO cells stably expressing human TREK-1 (hTREK-1/CHO) were constructed at Evotec. […]
hTREK-1/CHO or hTREK-2/HEK were plated in 384-well plates at a density of 1.0x10^4 cells/well or 2.0x10^4 cells/well, respectively, and cultured overnight. After the wash by HBSS + 20 mM HEPES buffer, cells were loaded with Thallos dye for 1 hour at room temperature. After the wash […]
dissolved with HBSS + 20mM HEPES buffer were added to each well. After 10 minutes incubation at room temperature, thallium stimulus buffer were added to each well and the fluorescent intensity are measured by Panoptic. The final thallium concentration was 0.36 mM in […]
TREK-1 or 0.24 mM in TREK-2, respectively. […]

Where [2] appears, read: intravenous, 0.2 mg/kg, rat cassette PK study.

In data set [1], `CS(=O)(=O)Nc1ccc(C(=O)NCc2ccc(Cl)cc2Cl)cc1` [Compound 13] yielded a partition ratio (Kp) at 2 h of 0.26 and a Kp uu at 2 h of 0.15. On TREK-1, this compound yielded a 50% effective concentration (EC50) of 8.1 µM and an Emax of 85%.

In data set [1] (setting [2]), `O=C(NCc1ccc(Br)cc1Cl)c1ccc(-c2ncn[nH]2)cc1` [Compound 14a] came in with a partition ratio (Kp) at 15 min of 0.2 and a Kp uu at 15 min of 0.36. In addition, on TREK-1, the concentration giving a half-maximal response (EC50) was 1.6 µM and the maximum response (Emax) stood at 93%.

In data set [1], `Cc1cc(OC(F)(F)F)ccc1CNC(=O)c1ccc2ncnn2c1` [Compound 19a] returned a Kp at 2 h of 0.5 and a Kp uu at 2 h of 0.2. Moreover, on TREK-1, the 50% effective concentration (EC50) is 3.8 µM and the maximal response (Emax) stood at 99%.

For the compound `O=C(NCc1ccc(OC(F)(F)F)cc1F)c1ccc2ncnn2c1` [Compound 19b], in data set [1], the partition ratio (Kp) at 2 h was 0.37 and the Kp uu at 2 h is 0.38. On TREK-1, this compound had an EC50 of 2.8 µM and a maximum response (Emax) of 95%.

Consider `O=C(NCc1ccc(OC(F)(F)F)cc1Cl)c1ccc2nncn2c1` [Compound 20], for which the Kp uu in data set [1] (rat, dosing not given) amounted to 0.078.
